Marks after values point to notes of the source that are not given here.

Assay [1] is described as follows: Example 6 feeding test in growing piglets, growth and diarrhoea. It is filed as in vivo. Here is the method:
An amount of a product obtained from baking yeast by hydrolytic treatment, was added to the fodder of growing piglets. The fodder for the reference group contained Olaqvindox chemotherapeutic substance, 50 mg/kg. In the fodder for the yeast group, instead of Olaqvindox, yeast fraction was added in an amount of 0.5%.

The nature of assay [2]: Example 7 feeding test in growing pigs. The class given is in vivo. The following applies: Olagvindox 50 ppm, 33 test days. The protocol:
An amount of a product obtained from baking yeast by hydrolytic treatment, was added to the fodder of growing pigs. The measurement was implemented as in the preceding example.

Assay [3] can be described thus: Example 5 feeding test, development of piglets. The class given is in vivo, pigs. From the text:
In this test, four equal groups of pigs were fed with the following fodders:
Group 1: basic fodder (reference)
Group 2: basic fodder+40 ppm Avilamysine
Group 3: basic fodder+product prepared from yeast by hydrolytic treatment, in an amount of 0.5 w-% (of dry matter)
Group 4: basic fodder+product prepared from yeast by hydrolytic treatment, in an amount of 1.0 w-% (of dry matter).

Where [4] appears, read: group 2, basic fodder + 40 ppm Avilamysine.

In the case of `Cc1c(C(=O)NCCO)[n+]([O-])c2ccccc2[n+]1[O-]` [Olaqvindox], in assay [1] (Olaqvindox 50 ppm in fodder), the “Additional growth” value is 255 g/day and the Fodder efficiency kg/kg was 1.61 kg/kg. For the same compound, the “Final weight” value in assay [1] (Olaqvindox 50 ppm in fodder, initial weight 7.10 kg) is 12.47 kg. In addition, in assay [1] (Olaqvindox 50 ppm, average, 1 = normal faeces, 2 = loose faeces, 3 = watery diarrhoea), the Diarrhoea index came out at 2.5. The “Treatments for diarrhoea, % of farrows” value in assay [1] (Olaqvindox 50 ppm, treated with an antibiotic or with zinc oxide because of diarrhoea) is given as 100 % of farrows. The Fodder efficiency kg/kg in assay [2] is 2.07 kg/kg. In addition, the “Additional growth, g/day” value in assay [2] (initial weight 21.7 kg) was 777^a g/day.

Consider Avilamysine, for which the “effect on growth and fodder consumption compared with the reference group” value in assay [3] (40 ppm Avilamysine) was “increased the growth and fodder consumption effectively”. In assay [3] (setting [4]), the “ADG” value came to 502 g/day and the “FCR kg fodder/kg Weight increase” value was found to be 1.81 kg fodder/kg. The “Final weight” value in assay [3] (group 2, basic fodder + 40 ppm Avilamysine, starting weight 10.6 kg) is reported as 24.1 kg.

The values above are taken from patent publication US20020061345A1, “PROCEDURE FOR PREPARING A FOOD ADDITIVE, AND AN ADDITIVE AND ITS USE” (priority 1996, published 2002).
